Experiment [1] deals with T1, human DLK (Homo sapiens, UniProt Q12852).
T1 sequence (Q12852 1-859): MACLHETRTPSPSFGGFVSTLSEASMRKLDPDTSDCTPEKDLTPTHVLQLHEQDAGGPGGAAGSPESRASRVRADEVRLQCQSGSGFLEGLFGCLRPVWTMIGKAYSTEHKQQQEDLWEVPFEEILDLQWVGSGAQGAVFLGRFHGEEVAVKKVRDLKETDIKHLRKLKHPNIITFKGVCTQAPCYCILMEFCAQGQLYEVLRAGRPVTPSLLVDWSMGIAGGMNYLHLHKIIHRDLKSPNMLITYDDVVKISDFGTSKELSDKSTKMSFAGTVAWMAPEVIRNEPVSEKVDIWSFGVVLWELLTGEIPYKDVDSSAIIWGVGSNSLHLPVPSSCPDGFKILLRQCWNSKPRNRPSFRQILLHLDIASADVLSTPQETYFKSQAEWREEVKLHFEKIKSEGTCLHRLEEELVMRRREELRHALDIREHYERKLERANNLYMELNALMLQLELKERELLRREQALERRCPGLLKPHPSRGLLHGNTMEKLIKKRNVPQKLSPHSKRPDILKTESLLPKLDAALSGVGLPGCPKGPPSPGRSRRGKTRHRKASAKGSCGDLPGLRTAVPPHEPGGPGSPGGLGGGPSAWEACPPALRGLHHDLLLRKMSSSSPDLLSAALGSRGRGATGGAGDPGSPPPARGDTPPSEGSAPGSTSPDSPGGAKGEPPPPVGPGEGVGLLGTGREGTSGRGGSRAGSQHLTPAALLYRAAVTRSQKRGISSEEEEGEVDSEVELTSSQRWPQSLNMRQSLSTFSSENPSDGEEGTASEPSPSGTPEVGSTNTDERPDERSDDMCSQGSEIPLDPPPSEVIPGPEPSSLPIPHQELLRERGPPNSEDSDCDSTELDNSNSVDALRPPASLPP
Kind of experiment: Phospho-cJun Cellular Assay. The format is cell-based. The arrangement: expressed in transfected cells. As to conditions: HEK293 cells stably transfected with Dox-inducible human DLK; p-cJun (Ser63); 5 h compound incubation. The gist of the method:
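HEK293 cells with doxycycline-induced human DLK (induced 20 h; uninduced cells as negative control) treated with compound for 5 h at 37 °C. Phospho-cJun (Ser63) measured in lysates with detection-antibody kit; IC50 from variable-slope dose-response fit.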

The target in experiment [2] is T1, human DLK. Kind of experiment: DLK Kd Determinations (KINOMEscan KdELECT, DiscoveRx). Also on record: full length of human DLK (amino acids 1-859); host or cells: transiently transfected HEK293 cells; unpurified extract. The note with it: fusion protein of full length human DLK (amino acids 1-859) and NFkB DNA binding domain; qPCR readout; duplicate. The gist of the method: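 Competition binding of full-length human DLK (aa 1-859)-NFkB DBD fusion, DNA-tagged, from HEK293 extracts against an immobilized ligand; 1 h at room temperature, 0.9% DMSO. Bead-bound kinase was quantified by qPCR. Kd came from an 11-point 3-fold series (top 30,000 nM), in duplicate, with Hill slope fixed at −1.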
In general terms: In qPCR the cycle at which signal appears reflects the starting amount.

As usually defined, the IC50 is the concentration needed to halve the response being measured. The term Kd denotes the equilibrium constant for the complex coming apart.

At human DLK [1], `CN1CCN(C2C[C@@H]3[C@H](C2)[C@H]3n2cc(-c3cnc(N)c(C(F)(F)F)c3)nc2CC2CC2)CC1` (single isomer, unassigned) [Example 161a, 5-(2-(cyclopropylmethyl)-1-(3-(4-methylpiperazin-1-yl)bicyclo[3.1.0]hexan-6-yl)-1H-imidazol-4-yl)-3-(trifluoromethyl)pyridin-2-amine] had an IC50 of 454 nM. The Kd at human DLK [2] is 19 nM.
`Nc1ncc(-c2cn([C@H]3[C@@H]4CC(N5CCN(CCF)CC5)C[C@@H]43)c(CC3CC3)n2)cc1C(F)(F)F` (single isomer, unassigned) [Example 162b, 5-(2-(cyclopropylmethyl)-1-(3-(4-(2-fluoroethyl)piperazin-1-yl)bicyclo[3.1.0]hexan-6-yl)-1H-imidazol-4-yl)-3-(trifluoromethyl)pyridin-2-amine]: at human DLK [1], the IC50 came to 769 nM. Further, on human DLK [2], the equilibrium dissociation constant (Kd) stood at 5.6 nM.
In the same order, the values of `CC(C)c1nc(-c2cnc(N)c(OC(F)(F)F)c2)cn1[C@H]1C2CC(N3C[C@@H]4C[C@H]3CO4)C[C@@H]21` (stereo in doubt) [Example 134, 5-(1-((1S,5S)-3-((1S,4S)-2-oxa-5-azabicyclo[2.2.1]heptan-5-yl)bicyclo[3.1.0]hexan-6-yl)-2-isopropyl-1H-imidazol-4-yl)-3-(trifluoromethoxy)pyridin-2-amine] are 1040 nM and 33 nM.
In the same order, the values of `Nc1ncc(-c2cn([C@H]3[C@@H]4CN(C5COC5)C[C@@H]43)c(CC3CC3)n2)cc1C(F)(F)F` [Example 2, 5-(2-(cyclopropylmethyl)-1-((1R,5S,6s)-3-(oxetan-3-yl)-3-azabicyclo[3.1.0]hexan-6-yl)-1H-imidazol-4-yl)-3-(trifluoromethyl)pyridin-2-amine] are 1730 nM and 46 nM.
`Nc1ncc(-c2cn3c(n2)C(C2CC2)N(C2COC2)CC3)cc1C(F)(F)F` (centres unmarked) [Example 4, 5-[8-cyclopropyl-7-(oxetan-3-yl)-5H,6H,7H,8H-imidazo[1,2-a]pyrazin-2-yl]-3-(trifluoromethyl)pyridin-2-amine] showed an IC50 on human DLK [1] of 14800 nM. The same compound had a Kd on human DLK [2] of 390 nM.
For `CC(C)c1nc(-c2cnc(N)c(C(F)(F)F)c2)cn1C1CC1` [Example 6, 5-[1-cyclopropyl-2-(propan-2-yl)-1H-imidazol-4-yl]-3-(trifluoromethyl)pyridin-2-amine], inhibition against human DLK [1] was half-maximal at 3620 nM (IC50). This compound also came in with a Kd on human DLK [2] of 130 nM.
With `CC(C)c1nc(-c2cnc(N)c(C(F)(F)F)c2)cn1C1CCC1` [Example 7, 5-[1-cyclobutyl-2-(propan-2-yl)-1H-imidazol-4-yl]-3-(trifluoromethyl)pyridin-2-amine], the IC50 on human DLK [1] is 1070 nM. Besides, at human DLK [2], binding was characterised by a dissociation constant (Kd) of 66 nM.
On the same counts, the results for `CCC(O)c1nc(-c2cnc(N)c(C(F)(F)F)c2)cn1C1CCC1` (centres unmarked) [Example 22, 1-(4-(6-amino-5-(trifluoromethyl)pyridin-3-yl)-1-cyclobutyl-1H-imidazol-2-yl)propan-1-ol] are 550 nM and 18 nM.
On the same counts, the results for `CC(C)c1nc(-c2cnc(N)c(C(F)(F)F)c2)cn1C1CC2(C1)CN(C1COC1)C2` [Example 31, 5-(2-isopropyl-1-(2-(oxetan-3-yl)-2-azaspiro[3.3]heptan-6-yl)-1H-imidazol-4-yl)-3-(trifluoromethyl)pyridin-2-amine] are 2150 nM and 82 nM.
In the same order, the values of `CC(C)c1nc(-c2cnc(N)c(C(F)(F)F)c2)cn1C1CC2(CC(N3CCOCC3)C2)C1` (centres unmarked) [Example 38, 5-(2-isopropyl-1-(6-morpholinospiro[3.3]heptan-2-yl)-1H-imidazol-4-yl)-3-(trifluoromethyl)pyridin-2-amine] are 1140 nM and 25 nM.
Turning to `CC(C)c1nc(-c2cnc(N)c(OC(F)(F)F)c2)cn1C1CC2(CC(N3CCOCC3)C2)C1` (centres unmarked) [Example 39, 5-(2-isopropyl-1-(6-morpholinospiro[3.3]heptan-2-yl)-1H-imidazol-4-yl)-3-(trifluoromethoxy)pyridin-2-amine], the IC50 against human DLK [1] came out at 771 nM. The compound further registered a dissociation constant (Kd) at human DLK [2] of 30 nM.
Turning to `Nc1ncc(-c2cn(C3CC4(CC(N5CCOCC5)C4)C3)c(C3CC3)n2)cc1C(F)(F)F` (centres unmarked) [Example 40, 5-(2-cyclopropyl-1-(6-morpholinospiro[3.3]heptan-2-yl)-1H-imidazol-4-yl)-3-(trifluoromethyl)pyridin-2-amine], on human DLK [1], the midpoint of inhibition, the IC50, lay at 587 nM. The dissociation constant Kd at human DLK [2] worked out at 42 nM.
Compound `Nc1ncc(-c2cn(C3CC4(CC(N5CCOCC5)C4)C3)c(C3CC3)n2)cc1OC(F)(F)F` (centres unmarked) [Example 41, 5-(2-cyclopropyl-1-(6-morpholinospiro[3.3]heptan-2-yl)-1H-imidazol-4-yl)-3-(trifluoromethoxy)pyridin-2-amine] came in with an IC50 at human DLK [1] of 483 nM. At human DLK [2], this compound came in with a Kd of 38 nM.
In the same order, the values of `CC(C)c1nc(-c2cnc(N)c(C(F)(F)F)c2)cn1[C@H]1C[C@H](N2CCOCC2)C1` [Example 42, 5-(2-isopropyl-1-((1r,3r)-3-morpholinocyclobutyl)-1H-imidazol-4-yl)-3-(trifluoromethyl)pyridin-2-amine] are 2230 nM and 180 nM.
On the same counts, the results for `CC(C)c1nc(-c2cnc(N)c(OC(F)(F)F)c2)cn1[C@H]1C[C@H](N2CCOCC2)C1` [Example 43, 5-(2-isopropyl-1-((1r,3r)-3-morpholinocyclobutyl)-1H-imidazol-4-yl)-3-(trifluoromethoxy)pyridin-2-amine] are 804 nM and 120 nM.
In the same order, the values of `CC(C)c1nc(-c2cnc(N)c(C(F)(F)F)c2)cn1[C@H]1C[C@@H](N2CCCOCC2)C1` [Example 45, 5-(1-((1s,3s)-3-(1,4-oxazepan-4-yl)cyclobutyl)-2-isopropyl-1H-imidazol-4-yl)-3-(trifluoromethyl)pyridin-2-amine] are 6190 nM and 340 nM.
In turn, `Nc1ncc(-c2cn([C@H]3[C@@H]4CNC[C@@H]43)c(C3CC3)n2)cc1OC(F)(F)F` [Example 53, 5-(1-((1R,5S,6s)-3-azabicyclo[3.1.0]hexan-6-yl)-2-cyclopropyl-1H-imidazol-4-yl)-3-(trifluoromethoxy)pyridin-2-amine] displayed a half-maximal inhibitory concentration (IC50) at human DLK [1] of 802 nM. For the same compound, binding on human DLK [2] was characterised by a dissociation constant (Kd) of 57 nM.
Turning to `Nc1ncc(-c2cn([C@H]3[C@@H]4CN(C5COC5)C[C@@H]43)c(C3CC3)n2)cc1OC(F)(F)F` [Example 65, 5-(2-cyclopropyl-1-((1R,5S,6s)-3-(oxetan-3-yl)-3-azabicyclo[3.1.0]hexan-6-yl)-1H-imidazol-4-yl)-3-(trifluoromethoxy)pyridin-2-amine], at human DLK [1], half-maximal inhibition (IC50) required 1050 nM. On human DLK [2], this compound had a Kd of 32 nM.
In the same order, the values of `Nc1ncc(-c2cn([C@H]3[C@@H]4CN(C5CCOCC5)C[C@@H]43)c(C3CC3)n2)cc1OC(F)(F)F` [Example 66, 5-(2-cyclopropyl-1-((1R,5S,6s)-3-(tetrahydro-2H-pyran-4-yl)-3-azabicyclo[3.1.0]hexan-6-yl)-1H-imidazol-4-yl)-3-(trifluoromethoxy)pyridin-2-amine] are 827 nM and 59 nM.
For the compound `COCCN1C[C@@H]2[C@H](C1)[C@H]2n1cc(-c2cnc(N)c(OC(F)(F)F)c2)nc1C1CC1` [Example 68, 5-(2-cyclopropyl-1-((1R,5S,6s)-3-(2-methoxyethyl)-3-azabicyclo[3.1.0]hexan-6-yl)-1H-imidazol-4-yl)-3-(trifluoromethoxy)pyridin-2-amine], inhibition at human DLK [1] was half-maximal at 745 nM (IC50). On human DLK [2], this compound registered a Kd of 77 nM.
Compound `Nc1ncc(-c2cn([C@H]3[C@@H]4CN(CCF)C[C@@H]43)c(C3CC3)n2)cc1OC(F)(F)F` [Example 69, 5-(2-cyclopropyl-1-((1R,5S,6s)-3-(2-fluoroethyl)-3-azabicyclo[3.1.0]hexan-6-yl)-1H-imidazol-4-yl)-3-(trifluoromethoxy)pyridin-2-amine] registered an IC50 against human DLK [1] of 2440 nM. For the same compound, at human DLK [2], the affinity, expressed as Kd, was 45 nM.
`CC(=O)N1C[C@@H]2[C@H](C1)[C@H]2n1cc(-c2cnc(N)c(C(F)(F)F)c2)nc1C1CC1` [Example 72, 1-((1R,5S,6s)-6-(4-(6-amino-5-(trifluoromethyl)pyridin-3-yl)-2-cyclopropyl-1H-imidazol-1-yl)-3-azabicyclo[3.1.0]hexan-3-yl)ethan-1-one] returned a concentration for half-maximal inhibition (IC50) against human DLK [1] of 2690 nM. The compound also had a Kd on human DLK [2] of 69 nM.

The record behind these values is patent publication US20180057507A1, “INHIBITORS OF DUAL LEUCINE ZIPPER (DLK) KINASE FOR THE TREATMENT OF DISEASE” (Board of Regents, The University of Texas System, priority 2016, published 2018).
